The text below walks through data of patent US20080152640A1, “Means and Methods For Treating a Disease Which is Associated With an Excess Transport of Hyaluronan Across a Lipid Bilayer” (priority 2003, published 2008).

Read-outs that look alike come from different tables or passages of the source.

For series [1], the system named is bovine articular cartilage. In words: Proteoglycan loss from interleukin-induced osteoarthritic bovine cartilage organ culture. It is filed as cell-based. As to conditions: different concentrations.
Source text: We analyzed the efficacy of several inhibitors in organ cultures of bovine articular cartilage that was induced to become osteoarthritic by interleukin.
The target of a further series is T1, MRP7 (Homo sapiens, UniProt Q5T3U5).
T1 sequence (Q5T3U5 1-1492): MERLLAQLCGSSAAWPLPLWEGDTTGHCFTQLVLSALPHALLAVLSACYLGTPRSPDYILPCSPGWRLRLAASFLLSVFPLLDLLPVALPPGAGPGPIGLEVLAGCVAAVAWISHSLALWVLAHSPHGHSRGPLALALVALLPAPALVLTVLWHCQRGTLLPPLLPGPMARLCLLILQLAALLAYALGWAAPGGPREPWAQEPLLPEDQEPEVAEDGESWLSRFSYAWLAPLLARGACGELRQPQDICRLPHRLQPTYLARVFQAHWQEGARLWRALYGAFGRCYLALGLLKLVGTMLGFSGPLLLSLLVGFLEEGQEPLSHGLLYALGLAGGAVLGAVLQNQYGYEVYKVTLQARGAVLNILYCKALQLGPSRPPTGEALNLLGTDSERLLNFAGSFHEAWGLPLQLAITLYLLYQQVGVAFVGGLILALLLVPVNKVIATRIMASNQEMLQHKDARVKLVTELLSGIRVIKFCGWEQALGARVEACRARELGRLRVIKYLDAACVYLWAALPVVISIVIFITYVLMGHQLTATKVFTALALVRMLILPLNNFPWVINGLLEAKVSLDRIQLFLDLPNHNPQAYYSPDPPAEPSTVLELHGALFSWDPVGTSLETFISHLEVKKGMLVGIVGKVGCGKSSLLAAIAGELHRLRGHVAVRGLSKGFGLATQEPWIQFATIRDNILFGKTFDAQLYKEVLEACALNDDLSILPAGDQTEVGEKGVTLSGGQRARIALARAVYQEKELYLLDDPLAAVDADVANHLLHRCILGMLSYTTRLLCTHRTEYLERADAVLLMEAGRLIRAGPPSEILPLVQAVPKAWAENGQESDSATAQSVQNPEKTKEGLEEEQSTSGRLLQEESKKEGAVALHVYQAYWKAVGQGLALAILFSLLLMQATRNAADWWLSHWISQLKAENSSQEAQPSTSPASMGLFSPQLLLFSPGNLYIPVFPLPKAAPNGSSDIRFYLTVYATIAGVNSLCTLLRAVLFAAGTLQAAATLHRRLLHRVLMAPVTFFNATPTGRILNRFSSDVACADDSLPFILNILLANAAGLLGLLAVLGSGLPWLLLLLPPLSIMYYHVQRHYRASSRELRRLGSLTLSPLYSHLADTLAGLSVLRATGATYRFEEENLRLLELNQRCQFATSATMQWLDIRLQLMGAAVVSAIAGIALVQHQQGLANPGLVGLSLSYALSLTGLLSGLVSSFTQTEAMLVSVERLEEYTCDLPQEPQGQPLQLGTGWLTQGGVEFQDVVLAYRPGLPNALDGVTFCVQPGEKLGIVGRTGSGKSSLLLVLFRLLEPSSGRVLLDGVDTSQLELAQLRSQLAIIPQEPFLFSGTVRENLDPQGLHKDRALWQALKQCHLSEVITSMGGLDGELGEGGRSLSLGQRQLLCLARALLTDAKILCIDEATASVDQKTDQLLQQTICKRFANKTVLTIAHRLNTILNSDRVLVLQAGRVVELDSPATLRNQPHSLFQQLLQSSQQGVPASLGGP
As to conditions: cited from earlier work.

Series [2] deals with human fibroblasts. In words: Hyaluronan production of human fibroblasts (ELISA of culture medium). The format is cell-based. The conditions noted are these: for IC50: Fibroblast, read-out: HA production (IC50).
Another series relates to hyaluronan synthase. The conditions noted are these: for IC50: read-out: HA synthase activity (IC50), membranes of human fibroblasts.
A further series relates to human skin fibroblasts. In words: Proliferation of human skin fibroblasts (cell counting). The format is cell-based. As to conditions: Homo sapiens, Skin fibroblast, read-out: Proliferation (IC50). The procedure: Human fibroblasts were grown in […] in Dulbecco's modified Eagles medium supplemented with streptomycin/penicillin (100 units of each/ml), kanamycin (100 units/ml) and 10% foetal calf serum. Cell proliferation was determined by cell counting after trypsinisation three days after seeding.

The test system of a further series is hyaluronan transport. Briefly: Inhibition of hyaluronan transport (export) from human fibroblasts, discussion of Example 9. The conditions noted are these: for inhibition of hyaluronan transport (words): human fibroblasts.
A further series has as its target MRP5 (Homo sapiens, UniProt O15440). As to conditions: cited from earlier work.
The next series deals with T2, MRP4 (Homo sapiens, UniProt O15439).
T2 sequence (O15439 1-1325): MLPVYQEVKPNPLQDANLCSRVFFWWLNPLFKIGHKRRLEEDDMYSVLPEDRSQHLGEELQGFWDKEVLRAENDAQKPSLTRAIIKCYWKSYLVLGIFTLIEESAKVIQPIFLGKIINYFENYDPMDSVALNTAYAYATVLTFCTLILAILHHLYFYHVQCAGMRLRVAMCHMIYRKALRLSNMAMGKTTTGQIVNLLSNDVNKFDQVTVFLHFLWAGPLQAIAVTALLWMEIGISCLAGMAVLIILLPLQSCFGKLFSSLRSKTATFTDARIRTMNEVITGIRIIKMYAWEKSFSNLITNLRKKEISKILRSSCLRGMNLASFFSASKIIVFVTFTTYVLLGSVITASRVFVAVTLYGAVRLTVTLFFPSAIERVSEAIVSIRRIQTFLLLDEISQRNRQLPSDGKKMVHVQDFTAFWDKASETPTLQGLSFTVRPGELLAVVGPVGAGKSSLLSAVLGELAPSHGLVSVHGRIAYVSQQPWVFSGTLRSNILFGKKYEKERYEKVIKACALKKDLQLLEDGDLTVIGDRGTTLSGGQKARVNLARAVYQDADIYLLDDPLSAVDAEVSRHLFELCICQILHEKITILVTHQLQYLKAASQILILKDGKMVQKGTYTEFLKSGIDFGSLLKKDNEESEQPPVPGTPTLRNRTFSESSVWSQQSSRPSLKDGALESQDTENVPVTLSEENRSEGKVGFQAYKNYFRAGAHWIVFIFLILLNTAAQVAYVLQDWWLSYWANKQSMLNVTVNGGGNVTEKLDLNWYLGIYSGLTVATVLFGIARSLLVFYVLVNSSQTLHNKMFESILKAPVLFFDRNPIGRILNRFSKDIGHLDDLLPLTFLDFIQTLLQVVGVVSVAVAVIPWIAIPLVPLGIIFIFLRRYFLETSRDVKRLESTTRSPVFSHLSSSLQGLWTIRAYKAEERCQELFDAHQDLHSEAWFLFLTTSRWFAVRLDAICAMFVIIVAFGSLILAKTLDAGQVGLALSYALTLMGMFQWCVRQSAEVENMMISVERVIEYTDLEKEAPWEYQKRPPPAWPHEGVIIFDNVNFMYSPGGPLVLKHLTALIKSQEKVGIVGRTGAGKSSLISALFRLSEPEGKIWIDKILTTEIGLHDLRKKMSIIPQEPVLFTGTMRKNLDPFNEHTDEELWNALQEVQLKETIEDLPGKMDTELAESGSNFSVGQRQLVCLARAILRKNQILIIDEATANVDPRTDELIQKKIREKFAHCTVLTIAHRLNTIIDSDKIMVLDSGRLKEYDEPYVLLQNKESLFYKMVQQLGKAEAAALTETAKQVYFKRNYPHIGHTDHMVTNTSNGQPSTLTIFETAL
The conditions noted are these: read-out: IC50, MRP4 mediated export of methotrexate; substrate methotrexate; cited from earlier work.

Series [3] has as its system human fibroblasts. Briefly: Export of endogenously synthesized [3H]hyaluronan from human fibroblasts. The format is cell-based. As to conditions: for [3H]hyaluronan: 50 μg/ml in pinocytotic media, 40 hours. The method, then:
(§1) This experiment was performed to investigate, whether an excess of hyaluronan oligosaccharides introduced into the cytosol interfere with the export of hyaluronan synthesized by the human fibroblasts. Fibroblasts (4×10^4 cells) were seeded into culture flasks of 25 cm^2 growth areas and incubated for 24 hours. High molecular weight hyaluronan, hyaluronan oligosaccharides, a mixture of N-acetyl-glucosamine and glucuronic acid or control buffer were introduced into the cytosol by the method of osmotic lysis of pinocytotic vesicles. The concentrations of the added components in the pinocytotic media were 50 μg/ml. The cells were incubated for 40 hours in the presence of [3H]GlcN (8 μCi/ml, specific activity 29 Ci/mmole) and the amount of radioactive hyaluronan released into the culture medium was determined as described.
as §1, with “Ci/ml,” for “μCi/ml,”, “μCi/mmole)” for “Ci/mmole)”
This experiment was performed to investigate, whether both processes could be uncoupled. Fibroblasts were labelled with [3H]GlcN and hyaluronan oligosaccharides, high molecular weight hyaluronan or an equal mixture of GlcNac and GlcA were introduced into the cytosol. [3H]hyaluronan secreted into the medium was isolated by ion exchange chromatography and the radioactivity was determined.

The target in a further series is MRP2 (Homo sapiens, UniProt Q92887). The conditions noted are these: cited from earlier work.
[4] abbreviates: human fibroblasts, culture medium.

Chain of MRP5 (O15440 whole entry): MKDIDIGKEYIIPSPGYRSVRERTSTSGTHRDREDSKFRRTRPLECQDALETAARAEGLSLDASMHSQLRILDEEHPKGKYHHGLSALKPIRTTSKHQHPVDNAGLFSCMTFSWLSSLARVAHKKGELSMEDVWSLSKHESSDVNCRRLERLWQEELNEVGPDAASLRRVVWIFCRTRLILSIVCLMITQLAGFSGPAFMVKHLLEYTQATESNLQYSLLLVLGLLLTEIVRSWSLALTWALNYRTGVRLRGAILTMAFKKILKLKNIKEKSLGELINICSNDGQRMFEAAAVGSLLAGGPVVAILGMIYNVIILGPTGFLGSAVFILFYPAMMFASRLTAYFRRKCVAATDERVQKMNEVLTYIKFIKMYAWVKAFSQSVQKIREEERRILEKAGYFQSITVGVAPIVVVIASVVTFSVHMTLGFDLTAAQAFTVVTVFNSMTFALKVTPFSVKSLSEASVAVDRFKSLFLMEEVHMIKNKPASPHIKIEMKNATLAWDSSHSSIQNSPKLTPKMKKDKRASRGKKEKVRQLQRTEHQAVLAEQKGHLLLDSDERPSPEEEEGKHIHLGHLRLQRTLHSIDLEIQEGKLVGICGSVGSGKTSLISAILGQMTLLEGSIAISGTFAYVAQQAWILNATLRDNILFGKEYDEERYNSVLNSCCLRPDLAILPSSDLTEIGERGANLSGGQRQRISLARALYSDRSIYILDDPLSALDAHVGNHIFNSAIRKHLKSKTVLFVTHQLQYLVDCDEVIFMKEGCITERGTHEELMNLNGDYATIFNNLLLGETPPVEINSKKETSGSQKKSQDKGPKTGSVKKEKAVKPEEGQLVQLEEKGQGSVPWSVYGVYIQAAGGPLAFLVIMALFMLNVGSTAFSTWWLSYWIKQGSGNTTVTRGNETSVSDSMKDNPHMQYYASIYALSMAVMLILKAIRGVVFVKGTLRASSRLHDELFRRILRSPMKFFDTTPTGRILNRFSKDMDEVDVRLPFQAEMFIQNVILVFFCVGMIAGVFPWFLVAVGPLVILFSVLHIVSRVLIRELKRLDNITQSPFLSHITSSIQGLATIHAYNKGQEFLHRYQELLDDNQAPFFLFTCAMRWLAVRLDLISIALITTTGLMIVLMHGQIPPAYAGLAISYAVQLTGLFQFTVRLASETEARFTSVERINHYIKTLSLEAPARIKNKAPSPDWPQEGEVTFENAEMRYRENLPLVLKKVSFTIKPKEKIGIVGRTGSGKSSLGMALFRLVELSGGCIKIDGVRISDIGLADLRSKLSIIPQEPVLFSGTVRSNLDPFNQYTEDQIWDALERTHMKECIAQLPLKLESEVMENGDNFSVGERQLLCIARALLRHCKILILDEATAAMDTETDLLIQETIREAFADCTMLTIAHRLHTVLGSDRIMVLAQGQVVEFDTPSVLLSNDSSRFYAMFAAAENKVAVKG
Chain of MRP2 (Q92887 whole entry): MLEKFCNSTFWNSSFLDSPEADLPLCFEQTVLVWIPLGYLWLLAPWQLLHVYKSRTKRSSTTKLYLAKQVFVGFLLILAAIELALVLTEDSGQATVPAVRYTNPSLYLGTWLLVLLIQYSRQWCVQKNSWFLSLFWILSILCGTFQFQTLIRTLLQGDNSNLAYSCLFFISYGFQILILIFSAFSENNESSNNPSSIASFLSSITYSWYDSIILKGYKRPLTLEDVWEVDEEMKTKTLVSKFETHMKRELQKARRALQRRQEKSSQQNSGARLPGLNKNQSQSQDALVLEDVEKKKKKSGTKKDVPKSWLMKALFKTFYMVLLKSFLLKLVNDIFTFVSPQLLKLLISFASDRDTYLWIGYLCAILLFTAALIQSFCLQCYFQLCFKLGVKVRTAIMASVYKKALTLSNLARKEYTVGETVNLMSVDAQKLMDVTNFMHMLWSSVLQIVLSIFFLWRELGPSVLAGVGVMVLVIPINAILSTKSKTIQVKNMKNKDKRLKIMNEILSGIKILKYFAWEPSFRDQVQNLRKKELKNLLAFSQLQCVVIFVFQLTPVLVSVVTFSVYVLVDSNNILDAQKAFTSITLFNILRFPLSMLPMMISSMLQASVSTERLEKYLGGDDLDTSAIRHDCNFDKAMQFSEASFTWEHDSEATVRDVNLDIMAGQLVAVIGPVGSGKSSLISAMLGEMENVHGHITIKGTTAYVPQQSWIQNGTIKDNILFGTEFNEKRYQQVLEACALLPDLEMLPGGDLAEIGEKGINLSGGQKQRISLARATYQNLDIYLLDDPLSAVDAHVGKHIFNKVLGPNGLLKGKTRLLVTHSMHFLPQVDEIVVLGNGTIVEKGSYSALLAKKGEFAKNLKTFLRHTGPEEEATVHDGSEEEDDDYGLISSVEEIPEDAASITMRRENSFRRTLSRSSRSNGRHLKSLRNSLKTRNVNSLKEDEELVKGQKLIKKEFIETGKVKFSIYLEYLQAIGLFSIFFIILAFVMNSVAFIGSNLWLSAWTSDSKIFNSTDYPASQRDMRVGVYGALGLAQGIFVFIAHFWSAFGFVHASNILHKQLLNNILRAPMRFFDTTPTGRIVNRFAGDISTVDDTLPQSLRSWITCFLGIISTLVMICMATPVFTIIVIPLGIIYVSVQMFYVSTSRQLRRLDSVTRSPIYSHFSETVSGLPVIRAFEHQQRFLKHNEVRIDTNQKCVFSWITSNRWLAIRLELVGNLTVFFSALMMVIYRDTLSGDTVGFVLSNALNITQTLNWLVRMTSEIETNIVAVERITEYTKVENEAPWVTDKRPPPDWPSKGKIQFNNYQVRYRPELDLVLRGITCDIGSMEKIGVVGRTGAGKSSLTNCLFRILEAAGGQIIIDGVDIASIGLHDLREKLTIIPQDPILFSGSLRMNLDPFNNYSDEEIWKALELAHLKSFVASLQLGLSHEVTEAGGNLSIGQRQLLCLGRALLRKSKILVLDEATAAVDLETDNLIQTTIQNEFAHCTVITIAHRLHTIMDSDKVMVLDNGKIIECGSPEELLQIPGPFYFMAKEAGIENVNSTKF

`N=C(N)NC(=O)c1nc(Cl)c(N)nc1N` [amyloride]: the “protection from proteoglycan loss, safranin O histology” value in [1] is recorded as “only inhibitory at high concentrations”.

As to `CC(C)COCC(CN(Cc1ccccc1)c1ccccc1)N1CCCC1` (centres unmarked) [bepidril], the “protection from proteoglycan loss, safranin O histology” value in series [1] is given as “only inhibitory at high concentrations”.

Regarding `COc1cc2c(cc1OC)-c1c/c(=N\c3c(C)cc(C)cc3C)n(C)c(=O)n1CC2` [Trequinsin], the “inhibition of export of 17β-glucuronosyl-estradiol by MRP7” value at MRP7 (at 100 μM) is given as 44%. Further, the IC50 is 6 µM with human fibroblasts [2] (setting [4]), 60 µM with hyaluronan synthase, 100 µM with human skin fibroblasts and roughly 10 µM on MRP4. In addition, the “inhibition of hyaluronan transport (words)” value (from here on “inhibition … (words)”) in the series with hyaluronan transport was “good inhibitor”. Also, the inhibitory constant (Ki) (in general, the dissociation constant of the complex between target and ligand, obtained from inhibition or displacement) on MRP5 (substrate cAMP, read-out: Ki, MRP5 mediated transport of cAMP) is 0.38 µM; on MRP5 (substrate cGMP, read-out: Ki, MRP5 mediated transport of cGMP) it was 0.24 µM.

For the compound `OCCN(CCO)c1nc(N2CCCCC2)c2nc(N(CCO)CCO)nc(N3CCCCC3)c2n1` [Dipyramidole], the IC50 with human fibroblasts [2] (Homo sapiens) was 15 µM; in the series on hyaluronan synthase it was roughly 1 µM. Further, the “inhibition … (words)” value in the series with hyaluronan transport is “effective inhibitor”.

In the case of Hyaluronan, the [3H]hyaluronan stood at 10700 cpm in the series on human fibroblasts [3] (Example 10 Table 2, buffer) and 10723 cpm in the series on human fibroblasts [3] (Example 11 Table 1, buffer 9436). Further, the “export of endogenous labelled hyaluronan” value in the series on human fibroblasts [3] (introduced into the cytosol) is listed as “not”.

Consider `CN(C)C(=O)CCSC(SCCC(=O)O)c1cccc(/C=C/c2ccc3ccc(Cl)cc3n2)c1` (centres unmarked) [MK-571], for which the “inhibition of 17β-glucuronosyl-estradiol export by MRP7” value at MRP7 (at 30 μM) is given as 42%. For the same compound, the IC50 in the series on human fibroblasts [2] (setting [4]) was greater than 400 µM; in the series with hyaluronan synthase, greater than 100 µM; in the series with human skin fibroblasts, 150 µM; at MRP2, 469 µM. In addition, the “concentrations at which hyaluronan secretion/production is inhibited” value in the series with human fibroblasts [2] (human fibroblasts, inhibition only partial) is recorded as “above 100 μM”. In addition, the “hyaluronan transport / synthase activity in membranes” value in the series with hyaluronan synthase (membranes from human fibroblasts) is on record as “less efficient”. Further, in the series on hyaluronan transport, the “inhibition … (words)” value is given as “did not inhibit”. Further, the “effect on MRP5 mediated transport of cGMP” value on MRP5 (at concentrations up to 50 μM) was “no inhibitory effect”. Further, on MRP5, the “published inhibitory concentrations IC50 or Ki, MRP5” value was “no”.

For `C/C=C/C[C@@H](C)C(=O)[C@H]1C(=O)N[C@@H](C(C)C)C(=O)N(C)CC(=O)N(C)[C@@H](CC(C)C)C(=O)N[C@@H](C(C)C)C(=O)N(C)[C@@H](CC(C)C)C(=O)N[C@@H](C)C(=O)N[C@H](C)C(=O)N(C)[C@@H](CC(C)C)C(=O)N(C)[C@@H](CC(C)C)C(=O)N(C)[C@@H](C(C)C)C(=O)N1C` [Valspodar, cyclosporin D, 6-[(2S, 4R, 6E)-4-methyl-2 (methylamino)-3-oxo-6-octenoic acid]-(9CI)], the IC50 with human fibroblasts [2] (Homo sapiens) was 15 µM; in the series on human skin fibroblasts it was 45 µM; in the series with hyaluronan transport (Homo sapiens, Fibroblast, read-out: IC50 for hyaluronan transport (export)) it was roughly 15 µM.
